Tested on: HeLa cells
Assay: Cytosolic entry of NF-labelled peptides by flow cytometry
Format: cell-based
Conditions: 5 μM, 2 h, inversion of configuration of Arg-9 or Nal-4 of peptide 4

| Substance | fold higher cytosolic entry activity relative to peptide 4 [fold] |
| --- | --- |
| cyclo(AAFΦRpPRrFAAAQ)-miniPEG-K(NF) [compound 7] | 1.7 |
| cyclo(AAFϕRpPRRFAAAQ)-miniPEG-K(NF) [compound 8] | 2.3 |

— publication PMC7577319 (Bioorganic & medicinal chemistry, 2020)
